# Measured values from PMC10586017 (ACS Omega, 2023).
# Marks after values point to notes of the source that are not given here.
# Experiments:
# Type in all cases: cell-based
# β-actin = test system: β-actin
# eIF4E = eIF4E (Homo sapiens, UniProt P06730)
# p-eIF4E = p-eIF4E (Homo sapiens, UniProt P06730)
# HepG-2 cells = assay: cells; details: Homo sapiens, HepG2, read-out: mean IC50 HepG-2 ± SD
# MCF-7 cells = assay: cells; details: Homo sapiens, MCF7, read-out: mean IC50 MCF-7 ± SD
# Vero cells = assay: cells; details: Chlorocebus sabaeus, read-out: mean IC50 Vero cells
# Caco-2 cells = assay: cells; details: Homo sapiens, Caco-2, read-out: mean IC50 Caco-2 ± SD
# p-eIF4E, sequence (P06730 whole entry): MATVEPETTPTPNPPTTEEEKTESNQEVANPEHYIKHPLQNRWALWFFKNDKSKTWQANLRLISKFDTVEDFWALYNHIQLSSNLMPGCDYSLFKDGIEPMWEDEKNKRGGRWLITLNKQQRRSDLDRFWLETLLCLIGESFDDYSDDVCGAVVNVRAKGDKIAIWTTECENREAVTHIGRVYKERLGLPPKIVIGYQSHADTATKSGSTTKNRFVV
# eIF4E, sequence (P06730 whole entry): as above
Structure (SMILES),"mean protein, β-actin (β-actin)","protein ratio normalized to reference protein, β-actin (β-actin)","change in fold, eIF4E (eIF4E)",decrease in eIF4E protein (eIF4E),"mean protein, eIF4E (eIF4E)","protein ratio normalized to reference protein, eIF4E (eIF4E)","change in fold, p-eIF4E (p-eIF4E)",inhibition (decrease) of p-eIF4E expression (p-eIF4E),"mean protein, p-eIF4E (p-eIF4E)","protein ratio normalized to reference protein, p-eIF4E (p-eIF4E)",IC50 (HepG-2 cells),IC50 (MCF-7 cells),IC50 (Vero cells),IC50 (Caco-2 cells)
NC(=O)c1ncn([C@@H]2O[C@H](CO)[C@@H](O)[C@H]2O)n1 [Ribavirin],3.118 ng/mL,72.2,0.68,32.1%,2.520 ng/mL,42.6*,0.47,53%,2.190 ng/mL,35.5*,63.9 ± 3.43 µM,10.2 ± 0.15 µM,> 100 µM,9.78 ± 0.94 µM
CO[C@H]1C[C@@H]2CC[C@@H](C)[C@@](O)(O2)C(=O)C(=O)N2CCCC[C@H]2C(=O)O[C@H]([C@H](C)C[C@@H]2CC[C@@H](O)[C@H](OC)C2)CC(=O)[C@H](C)/C=C(\C)[C@@H](O)[C@@H](OC)C(=O)[C@H](C)C[C@H](C)/C=C/C=C/C=C/1C [Rapamycin],,,,,,,,,,,47.6 ± 3.83 µM,5.62 ± 0.24 µM,> 100 µM,27.7 ± 1.63 µM
